Where “and” joins values, the source holds several entries; their conditions need not be identical. Equal entries are not always repeated.
Assay: Pharmacokinetics of DC291407 and metabolites in rats (LC-MS/MS)
Type: in vivo, Sprague-Dawley (SD) rats
Method: The concentration of metabolite M1 (4071001), metabolite M2 (407002) or metabolite M3 (407003) in plasma was determined by LC-MS/MS method after DC291407 was administrated to the rats through gavage and intravenous injection.
The LC/MS/MS used is triple quadruple LC/MS 6460 from Agilent.
Six healthy male Sprague-Dawley (SD) rats with the weight of 180-220 g were randomly divided into 2 groups. The rats in each group were administrated with the tested compound by gavage or intravenous injection, respectively.
The compound was dissolved in 6.7% DMSO/6.7% Tween/86.6% normal saline.
The rats fasted for 12 h and can drink water ad libitum. 2 h after dosing, the rats were provided with food all together. The time point for collecting blood samples and the sample processing are listed as follows.
Intragastric administration: 0.25, 0.5, 1.0, 2.0, 3.0, 4.0, 6.0, 8.0 and 24 h after administration;
Intravenous administration: 5 min, 0.25, 0.5, 1.0, 2.0, 4.0, 6.0, 8.0 and 24 h after administration. At above time point, 0.3 ml venous blood was taken from retrobulbar venous plexus of the rat and loaded into heparinization tube. After centrifuged at 11000 rpm for 5 min, the plasma was separated and frozen at −20° C. in a refrigerator.

[1] = intravenous injection 10 mg/kg DC291407, average of 3 animals
[2] = intravenous injection 10 mg/kg DC291407, individual animals, 10 mg/kg
[3] = intravenous injection 10 mg/kg DC291407, time 0.083 h, average of 3 animals
[4] = intravenous injection 10 mg/kg DC291407, time 0.083 h, individual animals, 10 mg/kg
[5] = intravenous injection 10 mg/kg DC291407, time 0.25 h, average of 3 animals
[6] = intravenous injection 10 mg/kg DC291407, time 0.25 h, individual animals, 10 mg/kg
[7] = intravenous injection 10 mg/kg DC291407, time 0.50 h, average of 3 animals
[8] = intravenous injection 10 mg/kg DC291407, time 0.50 h, individual animals, 10 mg/kg
[9] = intravenous injection 10 mg/kg DC291407, time 1.0 h, average of 3 animals
[10] = intravenous injection 10 mg/kg DC291407, time 1.0 h, individual animals, 10 mg/kg
[11] = intravenous injection 10 mg/kg DC291407, time 2.0 h, average of 3 animals
[12] = intravenous injection 10 mg/kg DC291407, time 2.0 h, individual animals, 10 mg/kg
[13] = intravenous injection 10 mg/kg DC291407, time 4.0 h, individual animals, BLQ = below lower quantification
[14] = intravenous injection 10 mg/kg DC291407, time 6.0 h, individual animals, BLQ = below lower quantification
[15] = intravenous injection 10 mg/kg DC291407, time 8.0 h, individual animals, BLQ = below lower quantification
[16] = intravenous injection 10 mg/kg DC291407, time 24 h, individual animals, BLQ = below lower quantification

With `COC(=O)c1cc2nc(N3CCCC(N)C3)n(Cc3ccccc3C#N)c(=O)c2s1` (stereo not shown) [DC291407] the “Tmax of metabolite M1” value [1] was 4.98 min, the “Vss of prototype drug” value [1] was 210 L/kg and the “t1/2 of metabolite M1” value [1] was 738 min. For the same compound, the “t1/2 of prototype drug” value [1] was 40.8 min, the “Tmax of metabolite M1” value (intravenous injection 10 mg/kg DC291407, individual animals) was 4.98 min and the “AUC0-t of metabolite M1” value [2] was 22692 ng·h/mL and 20658 ng·h/mL and 23472 ng·h/mL. The “AUC0-t of prototype drug” value [2] was 42.4 ng·h/mL and 40.9 ng·h/mL and 24.8 ng·h/mL, the “AUC0-∞ of metabolite M1” value [2] was 23114 ng·h/mL and 20834 ng·h/mL and 23603 ng·h/mL and the “AUC0-∞ of prototype drug” value [2] was 45.9 ng·h/mL and 43.9 ng·h/mL and 29.8 ng·h/mL. For the same compound, the “CL of prototype drug” value [2] was 218 L/h/kg and 228 L/h/kg and 335 L/h/kg, the “Cmax of metabolite M1” value [2] was 39818 ng/mL and 41730 ng/mL and 53535 ng/mL and the “MRT of metabolite M1” value [2] was 96 min and 60.6 min and 47.4 min. For the same compound, the “MRT of prototype drug” value [2] was 40.8 min and 40.2 min and 58.8 min, the “Vss of prototype drug” value [2] was 148 L/kg and 154 L/kg and 328 L/kg and the “t1/2 of metabolite M1” value [2] was 1150 min and 551 min and 504 min. For the same compound, the “t1/2 of prototype drug” value [2] was 30.6 min and 31.8 min and 60.6 min, the “Plasma concentration of metabolite M1” value [3] was 45028 ng/mL and the “Plasma concentration of metabolite M2” value [3] was 117 ng/mL. For the same compound, the “Plasma concentration of prototype compound” value [3] was 59.2 ng/mL, the “Plasma concentration of metabolite M1” value [4] was 39818 ng/mL and 41730 ng/mL and 53535 ng/mL and the “Plasma concentration of metabolite M2” value [4] was 126 ng/mL and 209 ng/mL and 15.0 ng/mL. The “Plasma concentration of prototype compound” value [4] was 63.4 ng/mL and 60.7 ng/mL and 53.4 ng/mL, the “Plasma concentration of metabolite M1” value [5] was 29232 ng/mL and the “Plasma concentration of metabolite M2” value [5] was 339 ng/mL. For the same compound, the “Plasma concentration of prototype compound” value [5] was 34.8 ng/mL, the “Plasma concentration of metabolite M1” value [6] was 28858 ng/mL and 29247 ng/mL and 29592 ng/mL and the “Plasma concentration of metabolite M2” value [6] was 866 ng/mL and 132 ng/mL and 20.3 ng/mL. For the same compound, the “Plasma concentration of prototype compound” value [6] was 49.7 ng/mL and 34.4 ng/mL and 20.3 ng/mL, the “Plasma concentration of metabolite M1” value [7] was 9487 ng/mL and the “Plasma concentration of metabolite M2” value [7] was 102 ng/mL. For the same compound, the “Plasma concentration of prototype compound” value [7] was 23.0 ng/mL, the “Plasma concentration of metabolite M1” value [8] was 11784 ng/mL and 7251 ng/mL and 9426 ng/mL and the “Plasma concentration of metabolite M2” value [8] was 144 ng/mL and 153 ng/mL and 9.39 ng/mL. The “Plasma concentration of prototype compound” value [8] was 27.4 ng/mL and 31.7 ng/mL and 9.72 ng/mL, the “Plasma concentration of metabolite M1” value [9] was 4717 ng/mL and the “Plasma concentration of metabolite M2” value [9] was 23.4 ng/mL. The “Plasma concentration of prototype compound” value [9] was 9.9 ng/mL, the “Plasma concentration of metabolite M1” value [10] was 5628 ng/mL and 4634 ng/mL and 3891 ng/mL and the “Plasma concentration of metabolite M2” value [10] was 36.0 ng/mL and 30.9 ng/mL and 3.26 ng/mL. The “Plasma concentration of prototype compound” value [10] was 11.3 ng/mL and 11.9 ng/mL and 6.61 ng/mL, the “Plasma concentration of metabolite M1” value [11] was 310 ng/mL and the “Plasma concentration of prototype compound” value [11] was 4.05 ng/mL. The “Plasma concentration of metabolite M1” value [12] was 401 ng/mL and 214 ng/mL and 314.7 ng/mL, the “Plasma concentration of prototype compound” value [12] was 4.75 ng/mL and 3.94 ng/mL and 3.44 ng/mL and the “Plasma concentration of metabolite M2” value (intravenous injection 10 mg/kg DC291407, time 2.0 h, individual animals, BLQ = below lower quantification, 10 mg/kg) was “BLQ (2×) and 7.18 ng/mL”. For the same compound, the “Plasma concentration of metabolite M1” value (intravenous injection 10 mg/kg DC291407, time 4.0 h, average of 3 animals) was 69.7 ng/mL, the “Plasma concentration of metabolite M1” value (intravenous injection 10 mg/kg DC291407, time 4.0 h, individual animals, 10 mg/kg) was 55.4 ng/mL and 68.1 ng/mL and 85.5 ng/mL and the “Plasma concentration of metabolite M2” value [13] was “BLQ”. The “Plasma concentration of prototype compound” value [13] was “BLQ”, the “Plasma concentration of metabolite M1” value (intravenous injection 10 mg/kg DC291407, time 6.0 h, average of 3 animals) was 40.5 ng/mL and the “Plasma concentration of metabolite M1” value (intravenous injection 10 mg/kg DC291407, time 6.0 h, individual animals, 10 mg/kg) was 30.9 ng/mL and 41.4 ng/mL and 49.3 ng/mL. For the same compound, the “Plasma concentration of metabolite M2” value [14] was “BLQ”, the “Plasma concentration of prototype compound” value [14] was “BLQ” and the “Plasma concentration of metabolite M1” value (intravenous injection 10 mg/kg DC291407, time 8.0 h, average of 3 animals) was 37.3 ng/mL. The “Plasma concentration of metabolite M1” value (intravenous injection 10 mg/kg DC291407, time 8.0 h, individual animals, 10 mg/kg) was 24.8 ng/mL and 48.5 ng/mL and 38.5 ng/mL, the “Plasma concentration of metabolite M2” value [15] was “BLQ” and the “Plasma concentration of prototype compound” value [15] was “BLQ”. For the same compound, the “Plasma concentration of metabolite M1” value (intravenous injection 10 mg/kg DC291407, time 24 h, average of 3 animals) was 13.1 ng/mL, the “Plasma concentration of metabolite M1” value (intravenous injection 10 mg/kg DC291407, time 24 h, individual animals, 10 mg/kg) was 15.2 ng/mL and 13.3 ng/mL and 10.8 ng/mL and the “Plasma concentration of metabolite M2” value [16] was “BLQ”. For the same compound, the “Plasma concentration of prototype compound” value [16] was “BLQ”.

From US9045491B2, “Thienyl [3,2-D] pyrimidin-4-one compounds, preparation method, pharmaceutical compositions and use thereof” (SHANGHAI INSTITUTE OF MATERIA MEDICA, CHINESE ACADEMY OF …, priority 2011, dated 2015)
